Data published in patent US9321782B2, “Process for preparation of novel 42-O-(heteroalkoxyalkyl) rapamicin compounds with anti-proliferative properties” (MERIL LIFE SCIENCES PVT. LTD., priority 2010, dated 2016).
Values joined by “and” are separate entries in the source; they are usually repeats but may differ in a detail not shown here. Equal entries are not always repeated.

Columns and labels:
[1] = Stability analysis (HPLC purity on storage) without BHT at various temperatures; assay type: physicochemical; conditions: for Purity (%): without BHT
Protocol: (§1) To check the purity of the 42-O-(heteroalkoxyalkyl) rapamycin compounds the following condition was followed by using High Performance Liquid Chromatography, Phenomenex Synergi Hydro-RP 80a (250×4.6 ) mm, 4 micron column. The mobile phase was 65:15:20 methanol:acetonitile:water mixture. The detector was set at 276 nm and the flow rate was adjusted to 1.5 mL/min. Column temperature was 40° C. 2.0 μg of 42-O-(heteroalkoxyalkyl) rapamycin compounds was injected onto the column in a volume of 5.0 μL methanol with run time of 50 min.
The purity loss was higher at increased temperature, but there was no apparent change in the impurity profile. Table 2A presents the purity of various 42-O-(heteroalkoxyalkyl) rapamycin compounds at different time intervals and temperature conditions.

[2] = Stability analysis (HPLC purity on storage) with various concentrations of BHT at 40° C.; assay type: physicochemical; conditions: sealed container
Protocol: as §1
The inventors have also conducted the stability study of various 42-O-(heteroalkoxyalkyl) rapamycin compounds as mentioned above using various BHT concentrations. The study was conducted at 40° C. temperature in sealed container for 8 weeks.
42-O-(heteroalkoxyalkyl) rapamycin compounds obtained as per procedure described in Example 1 are respectively added with anti-oxidant, namely Butylated Hydroxytoluene (or BHT), at a concentration of 0.1%, 0.2%, 0.5%, and 1.0% (w/w) based on 100% (w/w) of 42-O-(heteroalkoxyalkyl) rapamycin compounds in sealed container to study the stability at 40° C. temperature. […] The purity data with the addition of different amounts of anti-oxidant as added to 42-O-(tetrahydrofuran-3-yl) rapamycin compound, 42-O-(oxetan-3-yl) rapamycin compound and 42-O-(tetrahydropyran-3-yl) rapamycin compound checked at different time intervals are summarized in Table 2B as below mentioned.

[3] = system: L-929 (ATCC cell lines CCL-1, NCTC clone 929) Mus musculus mouse fibroblast cells; assay: In-vitro cytotoxicity test by extraction method; assay type: cell-based; conditions: extract in contact with L-929 cells for 48 hours
Protocol: In-vitro assessment was done to check the cytotoxic or necrotic potential of the 42-O-(tetrahydrofuran-3-yl) rapamycin and 42-O-(oxetan-3-yl) rapamycin compounds by extraction method. In this study extracts of test substance were kept in contact with a multiple culture of L-929 (ATCC cell lines CCL-1, NCTC clone 929) Mus musculus mouse fibroblast cells for 48 hours. The cells were examined microscopically to assess the changes for its general morphology, vacuolization, detachment, cell lysis and membrane integrity.

rabbit blood [4] = assay: In-vitro haemolysis test; assay type: cell-based; conditions: for Haemolytic Index, Mean ± S. D.: mean of three test extracts, rabbit blood, 4 hrs
Protocol: Haemolysis test was conducted on rabbit blood by in-vitro method to check the haemolytic effect of 42-O-(tetrahydrofuran-3-yl) rapamycin (Merilimus-1) compound and 42-O-(oxetan-3-yl) rapamycin (Merilimus-2) compound. In this study the extracts of the test substances in triplicate were kept in contact with rabbit blood and incubated for 4 hrs. The concentration of plasma haemoglobin liberated in supernatant was calculated by comparing with absorbance of the standard solution in a spectrophotometer at 540 nm.

rabbit blood [5] = assay: Haemocompatibility test (thrombosis, coagulation, platelet count, leucocyte count); assay type: cell-based
Protocol: Haemocompatibility test is conducted to evaluate biological safety of the blood contacting 42-O-([…]) rapamycin and 42-O-(oxetan-3-yl) rapamycin compounds for the medical device. The interaction of test substance with rabbit blood was checked for thrombosis, coagulation, platelet count and leucocyte count.

[6] = system: human aorta smooth muscle cell cultures (hAoSMCs); assay: In-vitro anti-proliferative potency, BrdU assay, human smooth muscle cells; assay type: cell-based; conditions: BrdU incorporation, over 5 orders of magnitude concentration, compared with rapamycin
Excerpt: (§2) In-vitro assessment of relative anti-proliferative effect of novel mTOR inhibitors 42-O-(oxetan-3-yl) rapamycin compound and 42-O-(tetrahydrofuran-3-yl) rapamycin compound with rapamycin was done on human and rabbit smooth muscle cell culture models. In which, human aorta and rabbit illiac artery smooth muscle cell cultures were subjected to increasing doses of 42-O-(oxetan-3-yl) rapamycin compound 42-O-(tetrahydrofuran-3-yl) rapamycin compound and rapamycin over 5 orders of magnitude concentration in the cell culture medium. The ability of the cell culture to reproduce was assessed after drug exposure by addition of a BromodeoxyUridine (BrdU) coloured reagent which causes a colour change in the surviving cells. The extent of colour development was quantified at 450 nm wavelength using a spectrophotometer microplate reader (BMG Labtech, FLUOstar OPTIMA). […] On the contrary, lower OD values reflect less incorporation on BrdU and a shift towards cell inhibition. Growth inhibition was calculated by subtracting positive control OD values, which represent 100% uninhibited growth.

[7] = system: rabbit illiac artery smooth muscle cell cultures (RbIASMCs); assay: In-vitro anti-proliferative potency, BrdU assay, rabbit smooth muscle cells; assay type: cell-based; conditions: BrdU incorporation, over 5 orders of magnitude concentration, compared with rapamycin
Excerpt: as §2

[8] = test group, individual rabbits No. 1-3

For `COC1CC(C[C@H](C)[C@@H]2CC(=O)[C@H](C)/C=C(\C)C(O)[C@@H](OC)C(=O)[C@H](C)C[C@H](C)/C=C/C=C/C=C(\C)[C@@H](OC)C[C@@H]3CC[C@@H](C)[C@@](O)(O3)C(=O)C(=O)N3CCCC[C@H]3C(=O)O2)CCC1OC1CCOC1` (some centres unmarked) [Merilimus-1, 42-O-(tetrahydrofuran-3-yl) rapamycin], the “Stability (in words)” value ([1]; purified compounds without anti-oxidant) was “more thermally stable”, the “Purity (%)” value ([1]; 5° C. (sealed), 00 weeks after synthesis) was 98.6% and the “Purity (%)” value ([1]; 5° C. (sealed), 02 weeks after synthesis) was 97.8%. For the same compound, the “Purity (%)” value ([1]; 5° C. (sealed), 04 weeks after synthesis) was 97.0%, the “Purity (%)” value ([1]; 5° C. (sealed), 08 weeks after synthesis) was 96.7% and the “Purity (%)” value ([1]; 5° C. (sealed), 12 weeks after synthesis) was 96.3%. The “Purity (%)” value ([1]; 25° C. (sealed), 00 weeks after synthesis) was 98.7%, the “Purity (%)” value ([1]; 25° C. (sealed), 02 weeks after synthesis) was 97.6% and the “Purity (%)” value ([1]; 25° C. (sealed), 04 weeks after synthesis) was 96.9%. For the same compound, the “Purity (%)” value ([1]; 25° C. (sealed), 08 weeks after synthesis) was 96.7%, the “Purity (%)” value ([1]; 25° C. (sealed), 12 weeks after synthesis) was 94.1% and the “Purity (%)” value ([1]; 25° C. (unsealed), 00 weeks after synthesis) was 98.4%. The “Purity (%)” value ([1]; 25° C. (unsealed), 02 weeks after synthesis) was 97.1%, the “Purity (%)” value ([1]; 25° C. (unsealed), 04 weeks after synthesis) was 96.7% and the “Purity (%)” value ([1]; 25° C. (unsealed), 08 weeks after synthesis) was 95.2%. For the same compound, the “Purity (%)” value ([1]; 25° C. (unsealed), 12 weeks after synthesis) was 93.6%, the “Purity (%)” value ([1]; 40° C. (sealed), 00 weeks after synthesis) was 98.6% and the “Purity (%)” value ([1]; 40° C. (sealed), 02 weeks after synthesis) was 96.7%. The “Purity (%)” value ([1]; 40° C. (sealed), 04 weeks after synthesis) was 96.3%, the “Purity (%)” value ([1]; 40° C. (sealed), 08 weeks after synthesis) was 94.7% and the “Purity (%)” value ([1]; 40° C. (sealed), 12 weeks after synthesis) was 93.5%. The “Purity (%)” value ([2]; BHT 0.0% (w/w), 0 week) was 98.6%, the “Purity (%)” value ([2]; BHT 0.0% (w/w), 2 weeks) was 96.7% and the “Purity (%)” value ([2]; BHT 0.0% (w/w), 4 weeks) was 96.3%. For the same compound, the “Purity (%)” value ([2]; BHT 0.0% (w/w), 8 weeks) was 94.7%, the “Purity (%)” value ([2]; BHT 0.1% (w/w), 0 week) was 98.6% and the “Purity (%)” value ([2]; BHT 0.1% (w/w), 2 weeks) was 98.5%. The “Purity (%)” value ([2]; BHT 0.1% (w/w), 4 weeks) was 98.5%, the “Purity (%)” value ([2]; BHT 0.1% (w/w), 8 weeks) was 98.4% and the “Purity (%)” value ([2]; BHT 0.2% (w/w), 0 week) was 98.5%. The “Purity (%)” value ([2]; BHT 0.2% (w/w), 2 weeks) was 98.5%, the “Purity (%)” value ([2]; BHT 0.2% (w/w), 4 weeks) was 98.5% and the “Purity (%)” value ([2]; BHT 0.2% (w/w), 8 weeks) was 98.4%. The “Purity (%)” value ([2]; BHT 0.5% (w/w), 0 week) was 98.5%, the “Purity (%)” value ([2]; BHT 0.5% (w/w), 2 weeks) was 98.4% and the “Purity (%)” value ([2]; BHT 0.5% (w/w), 4 weeks) was 98.4%. For the same compound, the “Purity (%)” value ([2]; BHT 0.5% (w/w), 8 weeks) was 98.3%, the “Purity (%)” value ([2]; BHT 1.0% (w/w), 0 week) was 98.5% and the “Purity (%)” value ([2]; BHT 1.0% (w/w), 2 weeks) was 98.4%. The “Purity (%)” value ([2]; BHT 1.0% (w/w), 4 weeks) was 98.4%, the “Purity (%)” value ([2]; BHT 1.0% (w/w), 8 weeks) was 98.3% and the “Purity after eight-weeks of storage” value ([2]; with various concentrations of BHT (concentration not given)) was 98.3%. For the same compound, the “Toxic effect on cells (in words)” value [3] was “did not reveal any toxic effect on cells”, the “Haemolytic Index” value (rabbit blood [4]; individual test extracts 1-3, rabbit blood, incubated 4 hrs, = Haemoglobin released/Haemoglobin present × 100) was 1.4 and 1.7 and 1.9 and the “Haemolytic Index, Mean ± S. D.” value (rabbit blood [4]) was 1.7 ± 0.02. The “Haemolytic Index, Mean ± S. D.” value (rabbit blood [4]; listed as 42-O-(tetrahydrofuran-3-yl) rapamycin) was 1.7, the “Haemolytic nature (in words)” value (rabbit blood [4]; on the basis of haemolytic index) was “non-haemolytic” and the “Haemocompatibility (in words)” value (rabbit blood [5]; all haematological findings compared to control) was “haemocompatible”. The “Coagulation (PTT in sec.)” value (rabbit blood [5]; [8]) was 36 sec. (2×) and 39 sec, the “Differential leucocyte count: Basophile %” value (rabbit blood [5]; [8]) was 00% and the “Differential leucocyte count: Eosinophil %” value (rabbit blood [5]; [8]) was 01%. For the same compound, the “Differential leucocyte count: Lymphocyte %” value (rabbit blood [5]; [8]) was 43% and 50% (2×), the “Differential leucocyte count: Monocyte %” value (rabbit blood [5]; [8]) was 01% (2×) and 02% and the “Differential leucocyte count: Neutrophil %” value (rabbit blood [5]; [8]) was 55% and 47% and 48%. The “Distribution of cells: Platelets” value (rabbit blood [5]; [8]) was “Normal”, the “Distribution of cells: RBC” value (rabbit blood [5]; [8]) was “Normal” and the “Distribution of cells: WBC” value (rabbit blood [5]; [8]) was “Normal”. For the same compound, the Leucocyte count (rabbit blood [5]; [8]) was 7.3 Thousand/cmm and 6.8 Thousand/cmm and 7.4 Thousand/cmm, the Platelet count (rabbit blood [5]; [8]) was 4.9 lakhs/cmm and 4.6 lakhs/cmm and 4.5 lakhs/cmm and the Thrombosis (rabbit blood [5]; [8]) was “Nil”. The “Growth suppression of smooth muscle cells (in words)” value [6] was “more effectively inhibited growth of smooth muscle cells than rapamycin” and the “Growth suppression of smooth muscle cells (in words)” value [7] was “more effectively inhibited growth of smooth muscle cells than rapamycin”.
